Results from patent publication US20240228481A1, “NOVEL SULFONAMIDE SERIES OF QR2 INHIBITORS TO TACKLE OXIDATIVE STRESS AND COGNITIVE DECLINE” (CARMEL HAIFA UNIVERSITY ECONOMIC CORPORATION LTD., priority 2021, published 2024).

Tests used:
Type in all cases: biochemical
QR2 [1] = molecular target: T1, QR2 (Homo sapiens, UniProt P16083); assay: QR2 enzymatic activity assay (menadione/BNAH), fluorescence readout; design: purchased Sigma-Aldrich
T1 sequence (P16083 1-231): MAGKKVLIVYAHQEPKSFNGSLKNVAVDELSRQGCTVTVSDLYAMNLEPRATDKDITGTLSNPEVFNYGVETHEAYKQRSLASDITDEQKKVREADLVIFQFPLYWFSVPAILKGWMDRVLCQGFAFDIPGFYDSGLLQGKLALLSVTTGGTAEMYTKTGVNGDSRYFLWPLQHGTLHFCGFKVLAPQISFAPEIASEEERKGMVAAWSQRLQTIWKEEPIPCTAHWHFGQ
Description: (§1) The enzymatic activity of QR2 (10 nM) was measured using menadione (both Sigma-Aldrich) as substrate and dihydrobenzylnicotamide (BNAH; Tocris) as co-substrate (Boutin et al., 2005). The reaction was performed in 50 mM Tris HCl, 150 mM NaCl 0.01% Tween-20 pH=8.5 (Sigma-Aldrich) at room temperature. Briefly, 3 μL of menadione alone (200 μM) or a mixture of menadione and QR2 (200 μM of menadione and 10 nM of QR2) were dispensed in 1536-well black Nunc plates (Thermo-Fisher) using a Multidrop™ Combi Reagent Dispenser (Thermo-Fisher) and pre-incubated with compounds for 10 min. BNAH (200 μM) was then added (3 μL) to the reaction using a BioNex Solutions BNX 1536 plate washer and the plates were incubated for another 10 min. […] The initial HTS was done with approximately 200,000 compounds at a single concentration of 5 μM. The chemical libraries used were Selleck Chemicals Bioactives, the Drug-like set from Enamine, HitFinder collection from Maybridge, Spectrum Collection from Microsource, Lopac from Sigma-Aldrich and the diversity sets from ChemDiv and ChemBridge. Initial “hit” compounds were defined as causing >30% reduction of enzyme activity. […] “Hit” compounds resulting from both the fluorescence and absorbance assay were tested in a dose-response, and median inhibition concentration (IC50) values were determined. In parallel, the same dose response was used in a selectivity assay where QR2 enzyme was replaced by QR1 (also known as—NQO1, 10 nM; Sigma-Aldrich).
(§2) In order to establish a varied, flexible and chemically amenable starting point from which to develop such inhibitors, the inventors ran a standardized QR2 assay (see methods) against ˜200,000 compounds, from a varied assortment of chemical libraries.

QR1 (NQO1) [2] = molecular target: T2, QR1 (NQO1) (Homo sapiens, UniProt P15559); assay: Selectivity assay with QR1 in place of QR2, fluorescence readout
T2 construct: purchased Sigma-Aldrich
Description: (§3) The enzymatic activity of QR2 (10 nM) was measured using menadione (both Sigma-Aldrich) as substrate and dihydrobenzylnicotamide (BNAH; Tocris) as co-substrate (Boutin et al., 2005). The reaction was performed in 50 mM Tris HCl, 150 mM NaCl 0.01% Tween-20 pH=8.5 (Sigma-Aldrich) at room temperature. Briefly, 3 μL of menadione alone (200 μM) or a mixture of menadione and QR2 (200 μM of menadione and 10 nM of QR2) were dispensed in 1536-well black Nunc plates (Thermo-Fisher) using a Multidrop™ Combi Reagent Dispenser (Thermo-Fisher) and pre-incubated with compounds for 10 min. BNAH (200 μM) was then added (3 μL) to the reaction using a BioNex Solutions BNX 1536 plate washer and the plates were incubated for another 10 min. […] The initial HTS was done with approximately 200,000 compounds at a single concentration of 5 μM. The chemical libraries used were Selleck Chemicals Bioactives, the Drug-like set from Enamine, HitFinder collection from Maybridge, Spectrum Collection from Microsource, Lopac from Sigma-Aldrich and the diversity sets from ChemDiv and ChemBridge. Initial “hit” compounds were defined as causing >30% reduction of enzyme activity. Compounds suspected to be fluorescent were re-assayed in an absorbance assay at 350 nm using the same reaction but in a higher volume (100 μL), in a transparent plate (Greiner Bio-One). “Hit” compounds resulting from both the fluorescence and absorbance assay were tested in a dose-response, and median inhibition concentration (IC50) values were determined. In parallel, the same dose response was used in a selectivity assay where QR2 enzyme was replaced by QR1 (also known as—NQO1, 10 nM; Sigma-Aldrich).
(§4) In order to establish a varied, flexible and chemically amenable starting point from which to develop such inhibitors, the inventors ran a standardized QR2 assay (see methods) against ˜200,000 compounds, from a varied assortment of chemical libraries. […] Compounds that replicated the initial hit result were then assayed similarly, against NQO1, to evaluate compound specificity (FIG. 1B). From the HTS, a series of compounds containing a sulfonamide central linker, with an amine on one side and a heterocycle on the other, were identified and selected for SAR development (FIG. 1C).

QR1 (NQO1) [3] = molecular target: T2, QR1 (NQO1); assay: Selectivity assay with QR1 in place of QR2, absorbance readout
Description: as §3, §4

QR2 [4] = molecular target: T1, QR2; assay: QR2 enzymatic activity assay (menadione/BNAH), absorbance readout at 350 nm; design: purchased Sigma-Aldrich
Description: as §1, §2

T2 sequence (P15559 whole entry): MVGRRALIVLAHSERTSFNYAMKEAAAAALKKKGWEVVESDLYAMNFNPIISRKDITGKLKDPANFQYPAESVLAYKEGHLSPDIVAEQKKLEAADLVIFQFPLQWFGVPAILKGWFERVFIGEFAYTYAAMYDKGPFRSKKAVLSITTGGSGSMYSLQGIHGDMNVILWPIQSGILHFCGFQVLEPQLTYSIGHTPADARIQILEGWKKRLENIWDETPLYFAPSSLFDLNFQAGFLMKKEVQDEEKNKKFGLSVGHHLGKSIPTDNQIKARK

Row | SMILES | IC50 (QR2 [1]) [µM] | IC50 (QR1 (NQO1) [2]) [µM] | IC50 (QR1 (NQO1) [3]) [µM] | IC50 (QR2 [4]) [µM]
1 | CN(C)S(=O)(=O)c1cccc2ccccc12 [PCM-0071569] | > 9.8 | > 9.8 | – | –
2 | COCCNC(=O)N1CCN(S(=O)(=O)c2c(C)c(C)c(C)c(C)c2C)CC1 [PCM-0072788] | > 9.8 | > 9.8 | – | –
3 | Cc1c(C)c(C)c(S(=O)(=O)N2CCNC(=O)C2)c(C)c1C [PCM-0083647] | 7.04 | > 9.8 | – | –
4 | COc1cc(NS(C)(=O)=O)ccc1Cc1c2ccccc2nc2ccccc12 [PCM-0090313] | > 9.8 | > 9.8 | – | –
5 | CS(=O)(=O)N(Cc1cccnc1)C1CN(C(=O)c2c[nH]c3ccccc23)C1 [PCM-0105406] | > 9.9 | > 9.9 | > 9.99 | 8.43
6 | CCCn1cc(C2CCN(S(=O)(=O)c3ccc(C(C)(C)C)cc3)CC2)c2cccnc21 [PCM-0105813] | > 9.9 | > 9.9 | > 9.99 | > 9.99
7 | CCCn1cc(C2=CCN(S(=O)(=O)Cc3ccccc3)CC2)c2cccnc21 [PCM-0105851] | > 9.9 | > 9.9 | > 9.99 | 9.05
8 | COCC1CN(S(=O)(=O)Cc2ccccc2)CC12CCNCC2 (centres unmarked) [PCM-0109036] | > 9.9 | > 9.9 | > 9.99 | > 9.99
9 | CC(=O)N1CCOc2ccc(S(=O)(=O)N3CCCc4ccccc43)cc21 [PCM-0119249] | > 9.9 | 4.7 | 3.48 | > 9.99
10 | CCOC(=O)c1c(S(=O)(=O)N(CC)c2cccc(C)c2)c(C)n(C)c1C [PCM-0119438] | 3.59 | 5.39 | > 9.99 | 8.98
11 | CCOC(=O)c1c(S(=O)(=O)N2CCN(Cc3ccccc3)CC2)c(C)n(C)c1C [PCM-0119478] | > 9.9 | > 9.9 | > 9.99 | > 9.99
12 | CCOC(=O)c1c(S(=O)(=O)N(CCC(C)C)Cc2ccco2)c(C)n(C)c1C [PCM-0120203] | 8.21 | 3.79 | > 9.9 | 8.53
13 | CCOC(=O)c1cc(-c2ccc(OC)c(S(=O)(=O)N3CCCc4ccccc43)c2)on1 [PCM-0120247] | > 9.9 | > 9.9 | > 9.99 | > 9.99
14 | CCCS(=O)(=O)Nc1ccc2c(c1)C(=O)Nc1cc(C)ccc1O2 [PCM-0120253] | > 9.9 | 4.6 | > 9.99 | 8.89
15 | CCCS(=O)(=O)N1CCCc2cc(NC(=O)c3ccco3)ccc21 [PCM-0120563] | > 9.9 | > 9.9 | > 9.99 | > 9.99
16 | COc1ccc(OC)c(S(=O)(=O)Nc2cccc(-c3cn4c(C)csc4n3)c2)c1 [PCM-0121306] | 0.83 | 8.77 | > 9.99 | 2.03
17 | Cc1ccn2cc(-c3cccc(S(=O)(=O)N4CC(C)CC(C)C4)c3)nc2c1 (centres unmarked) [PCM-0124575] | 2.18 | > 9.9 | > 9.99 | 1.22
18 | Cc1ccc2nc(-c3cccc(S(=O)(=O)N4CCOCC4)c3)cn2c1 [PCM-0124615] | 3.25 | > 9.9 | > 9.99 | 1.65
19 | Cc1ccc2nc(-c3cccc(S(=O)(=O)N4CC(C)OC(C)C4)c3)cn2c1 (centres unmarked) [PCM-0124655] | 4.42 | > 9.9 | > 9.99 | 3.03

Row | SMILES | IC50 (QR2 [1]) [µM] | IC50 (QR1 (NQO1) [2]) [µM] | IC50 (QR1 (NQO1) [3]) [µM] | IC50 (QR2 [4]) [µM]
20 | CCCN(CCC)S(=O)(=O)c1cccc(-c2cn3cccc(C)c3n2)c1 [PCM-0124772] | 0.83 | > 9.9 | > 9.99 | 0.75
21 | Cc1ccc(-c2nnc(-c3ccccc3)o2)cc1S(=O)(=O)N(C)C [PCM-0127506] | 2.2 | > 9.99 | > 9.99 | 1.62
22 | CCN(CC)S(=O)(=O)c1cc(-c2nnc(-c3ccccc3)o2)ccc1C [PCM-0127546] | 4.82 | > 9.9 | > 9.99 | 3.12
23 | Cc1ccc(-c2nnc(-c3ccccc3)o2)cc1S(=O)(=O)N1CCC(C)CC1 [PCM-0127586] | 5.97 | > 9.99 | > 9.99 | 1.2
24 | Cc1c(-c2nnc(C3CCC3)o2)c(S(=O)(=O)NCc2ccc(Cl)cc2)c(C)n1C [PCM-0128885] | > 9.9 | > 9.9 | > 9.99 | > 9.99
25 | COc1cc(Cl)c(NS(=O)(=O)c2ccc(-c3cc(C)no3)cc2OC)c(OC)c1 [PCM-0131156] | 3.82 | > 9.9 | > 9.99 | 2.73
26 | Cc1cc(-c2ccc(C)c(S(=O)(=O)NCC3CCN(Cc4ccco4)CC3)c2)on1 [PCM-0136246] | 3.98 | > 9.9 | > 9.99 | 2.56
27 | O=c1n(Cc2ccc(Cl)cc2)nc2ccc(S(=O)(=O)N3CCCCC3)cn12 [PCM-0140113] | > 9.9 | > 9.9 | > 9.99 | > 9.99
28 | COc1ccc(S(=O)(=O)N2CCC(NC(=O)N3CCCC3)CC2)cc1 [PCM-0154188] | 2.06 | > 9.9 | > 9.99 | 3.83
29 | N#Cc1nc(-c2ccc(S(=O)(=O)N3CCCC3)cc2)oc1NCCCN1CCOCC1 [PCM-0172736] | < 0.83 | < 0.83 | > 9.99 | > 9.99
30 | CNC(=O)N1CCc2cc(S(=O)(=O)N3CCc4ccccc43)ccc21 [PCM-0181527] | > 9.9 | > 9.9 | > 9.99 | > 9.99
31 | Cc1cc(-c2ccc(C)c(S(=O)(=O)Nc3ccc(Cl)cc3)c2)[nH]n1 [PCM-0186036] | 2.36 | > 9.99 | > 9.99 | 1.16
32 | O=S(=O)(Nc1cccc(-c2cn3ccsc3n2)c1)c1ccc2c(c1)OCCO2 [PCM-0190999] | 5.62 | < 0.83 | < 0.75 | 4.03
33 | COc1ccc(O)cc1NC(=O)c1oc2ccc(S(=O)(=O)N3CCCC3)cc2c1C [PCM-0193675] | > 9.9 | > 9.9 | > 9.99 | > 9.99
34 | Cc1csc(-c2cc(S(=O)(=O)NC3CCCCC3)c(C)n2C)n1 [PCM-0195577] | > 9.9 | > 9.9 | > 9.99 | > 9.99
35 | CCOC(=O)C1CCN(S(=O)(=O)c2cc(-c3csc(C)n3)ccc2C)CC1 [PCM-0197024] | 4.16 | > 9.9 | > 9.99 | 3.2
36 | Cc1nc(-c2ccc(C)c(S(=O)(=O)N3CCN(C(=O)c4ccco4)CC3)c2)cs1 [PCM-0197066] | 4.65 | > 9.99 | > 9.99 | 1.28
37 | Cc1ccn2cc(-c3cccc(S(=O)(=O)N(C)C)c3)nc2c1 [PCM-0213801] | – | > 9.99 | > 9.99 | –
38 | Cc1ccc(-c2cn3cccc(C)c3n2)cc1S(=O)(=O)N1CCN(C)CC1 [YB-540] | 0.425 | > 9.99 | – | –
